Measured values taken from patent publication US20240043403A1, “HETEROARYL CARBOXAMIDE COMPOUND” (Astellas Pharma Inc., priority 2020, published 2024).

target: human recombinant DGK ξ (Homo sapiens (Human), UniProt Q13574); assay: Evaluation of DGK ξ inhibitory effect (ADP-Glo Kinase Assay); type: biochemical; details: ADP-Glo luminescence
Description: Test Example 1. Evaluation of DGK ξ Inhibitory Effect
The inhibitory effect of a test compound on human recombinant DGK ξ (Cama Biosciences, Inc., 12-410-20N) was examined by the following method in which detection is performed with ADP-Glo™ Kinase Assay (Promega Corporation).
To a 384-well plate (Greiner Bio-One Co., Ltd.), 3 μL of a DGK ξ enzyme dissolved in an assay buffer (40 mM Tris-HCl pH 7.5, 10 mM MgCl2, 1 mM dithiothreitol (DTT) and 0.1 mg/mL bovine serum albumin (BSA)) (90 ng/mL) was added, and 3 μL of the test compound diluted with the same assay buffer was added so that an intended final concentration was obtained. The mixture was left standing at room temperature for 15 minutes, 3 μL of a substrate (150 μM 1-oleoyl-2-acetyl-sn-glycerol (Sigma-Aldrich Co. LLC), 480 μM phosphatidylserine (Avanti, Inc.) and 150 μM UltraPure-ATP (attached to ADP-Glo)) was then added, and the mixture was left standing at room temperature for 30 minutes to react. Thereafter, 3 μL of an ADP-Glo Reagent was added, and the mixture was left standing at room temperature for 40 minutes to stop the enzyme reaction. Further, 6 μL of a Kinase-Detection Reagent was added, the mixture was left standing at room temperature for 30 minutes, and the luminescence was then measured using ARVO X3 (PerkinElmer, Inc.). The half maximal inhibitory concentration (IC50) was calculated by Sigmoid-Emax model non-linear regression analysis, where the signal value in solvent treatment was set to 0% inhibition and the signal value without addition of the DGK ξ enzyme was set to 100% inhibition. […] In the table. Ex represents the number of each Example described below.

Chain of human recombinant DGK ξ (Q13574 whole entry): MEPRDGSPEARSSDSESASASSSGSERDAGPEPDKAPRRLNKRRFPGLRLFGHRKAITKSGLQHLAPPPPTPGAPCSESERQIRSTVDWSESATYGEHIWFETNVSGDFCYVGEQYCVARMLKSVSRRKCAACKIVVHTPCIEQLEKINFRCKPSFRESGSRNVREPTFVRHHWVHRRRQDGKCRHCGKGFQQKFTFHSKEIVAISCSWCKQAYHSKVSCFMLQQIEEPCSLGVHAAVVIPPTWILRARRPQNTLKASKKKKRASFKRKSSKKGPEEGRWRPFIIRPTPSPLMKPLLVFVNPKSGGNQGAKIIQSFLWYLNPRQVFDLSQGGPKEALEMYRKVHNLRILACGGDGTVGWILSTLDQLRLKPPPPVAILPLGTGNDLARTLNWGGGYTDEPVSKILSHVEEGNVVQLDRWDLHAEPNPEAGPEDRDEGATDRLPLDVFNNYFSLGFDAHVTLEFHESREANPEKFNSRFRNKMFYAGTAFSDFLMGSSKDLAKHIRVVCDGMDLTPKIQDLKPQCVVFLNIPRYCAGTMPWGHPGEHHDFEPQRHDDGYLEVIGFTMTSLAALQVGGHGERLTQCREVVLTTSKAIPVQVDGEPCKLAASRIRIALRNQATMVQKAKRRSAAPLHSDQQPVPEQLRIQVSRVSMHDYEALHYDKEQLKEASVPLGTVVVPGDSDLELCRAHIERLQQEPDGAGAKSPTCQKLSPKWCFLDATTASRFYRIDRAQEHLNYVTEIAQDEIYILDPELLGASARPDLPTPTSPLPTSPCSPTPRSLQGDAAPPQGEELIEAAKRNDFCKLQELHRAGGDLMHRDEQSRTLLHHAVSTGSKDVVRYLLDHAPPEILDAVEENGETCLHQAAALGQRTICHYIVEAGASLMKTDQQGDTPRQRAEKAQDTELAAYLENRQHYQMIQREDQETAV

SMILES | IC50 [nM]
O=C(Nc1ccc(OC2CC2)c(C(F)(F)F)c1-c1cnn(C2CCNCC2)c1)c1ccn(-c2ccnnc2)n1 [Example 72] | 62
N[C@@H]1CCN2CCN(c3c(NC(=O)c4coc(-c5ccnnc5)n4)ccc(OC4CCC4)c3C(F)(F)F)C[C@@H]12 [Example 75] | 69
CN[C@@H]1CCN2CCN(c3c(NC(=O)c4coc(-c5ccnnc5)n4)ccc(Oc4ccccc4)c3C(F)(F)F)C[C@@H]12 [Example 76] | 7.6
CN[C@@H]1CCN2CCN(c3c(NC(=O)c4ccn(-c5ccnnc5)n4)ccc(Oc4ccccc4F)c3C(F)(F)F)C[C@@H]12 [Example 78] | 1.3
NCCOc1cc(-c2c(NC(=O)c3ccn(-c4ccnnc4)n3)ccc(OC3CCC3)c2C(F)(F)F)ccn1 [Example 79] | 7.8
N[C@@H]1CCN2CCN(c3c(NC(=O)c4coc(-c5ccnnc5)n4)ccc(OC4CC4)c3C(F)(F)F)C[C@@H]12 [Example 81] | 110
N[C@H]1CCN2CCN(c3c(NC(=O)c4ccn(-c5ccnnc5)n4)ccc(Oc4ccccc4F)c3C(F)(F)F)C[C@H]12 [Example 84] | 2.1
Cc1cc(C(=O)Nc2ccc(Oc3ccccc3Cl)c(C(F)(F)F)c2N2CCC[C@@H](CN)C2)nn1-c1ccnnc1 [Example 91] | 25
CNC[C@@H]1CN(c2c(NC(=O)c3ccn(-c4ccnnc4)n3)ccc(Oc3ccccc3Cl)c2C(F)(F)F)CCN1C [Example 95] | 3.8
CNC[C@H]1CN(c2c(NC(=O)c3ccn(-c4ccnnc4)n3)ccc(Oc3ccc(F)cc3F)c2C(F)(F)F)CCN1C [Example 96] | 30
CNC[C@H]1CN(c2c(NC(=O)c3coc(-c4ccnnc4)n3)ccc(OC3CCC3)c2C(F)(F)F)CCN1C [Example 100] | 60
CNC[C@H]1CN(c2c(NC(=O)c3coc(-c4ccnnc4)n3)ccc(Oc3ccc(F)cc3)c2C(F)(F)F)CCN1C [Example 102] | 210
CNC[C@H]1CN(c2c(NC(=O)c3coc(-c4ccnnc4)n3)ccc(Oc3ccccc3F)c2C2CC2)CCN1C [Example 103] | 46
CNC[C@H]1CN(c2c(NC(=O)c3coc(-c4ccnnc4)n3)cc(F)c(Oc3ccccc3)c2F)CCN1C [Example 106] | 7.5
CNC[C@H]1CN(c2c(NC(=O)c3ccn(CC(F)F)n3)cc(F)c(Oc3ccccc3)c2F)CCN1C [Example 107] | 220
NC[C@@H]1CCCN(c2c(NC(=O)c3cccn(CC(F)(F)F)c3=O)ccc(Oc3ccccc3)c2C(F)(F)F)C1 [Example 110] | 190
Cc1cc(C(F)(F)F)n2nc(C(=O)Nc3ccc(Oc4ccccc4)c(C(F)(F)F)c3N3CCC[C@@H](CN)C3)cc2n1 [Example 111] | 280
CN(C)CCOc1cc(-c2c(NC(=O)c3coc(-c4ccnnc4)n3)ccc(OC3CCC3)c2C(F)(F)F)ccn1 [Example 113, N-[4-(cyclobutyloxy)-2-{2-[2-(dimethylamino)ethoxy]pyridin-4-yl}-3-(trifluoromethyl)phenyl]-2-(pyridazin-4-yl)-1,3-oxazole-4-carboxamide] | 21
CN(C)[C@@H]1CCN2CCN(c3c(NC(=O)c4coc(-c5ccnnc5)n4)ccc(OC4CC4)c3C(F)(F)F)C[C@@H]12 [Example 119] | 41
CN(C)[C@@H]1CCN2CCN(c3c(NC(=O)c4coc(-c5ccnnc5)n4)ccc(Oc4ccccc4F)c3C(F)(F)F)C[C@@H]12 [Example 120] | 4.3
CNC[C@H]1CN(c2c(NC(=O)c3ccn(-c4ccnnc4)n3)ccc(Oc3ccccc3F)c2C(F)(F)F)CCN1C [Example 122, N-[4-(2-fluorophenoxy)-2-{(3S)-4-methyl-3-[(methylamino)methyl]piperazin1-yl}-3-(trifluoromethyl)phenyl]-1-(pyridazin-4-yl)-1H-pyrazole-3-carboxamide monobutanedioate] | 3.2
CNC[C@H]1CN(c2c(NC(=O)c3ccn(-c4ccnnc4)n3)ccc(Oc3ccccc3F)c2Cl)CCN1C [Example 125] | 1.8

The remaining lines, values ahead:

IC50 [nM] | SMILES
55 | CNCCOc1cc(-c2c(NC(=O)c3coc(-c4ccnnc4)n3)ccc(OC3CC3)c2C(F)(F)F)ccn1 [Example 70]
21 | O=C(Nc1ccc(OC2CCC2)c(C(F)(F)F)c1-c1cnn(C2CCNCC2)c1)c1coc(-c2ccnnc2)n1 [Example 71]
43 | NCCCn1cc(-c2c(NC(=O)c3coc(-c4ccnnc4)n3)ccc(OC3CCC3)c2C(F)(F)F)cn1 [Example 73]
16 | NCCCn1cc(-c2c(NC(=O)c3ccn(-c4ccnnc4)n3)ccc(OC3CCC3)c2C(F)(F)F)cn1 [Example 74]
5.6 | N[C@@H]1CCN2CCN(c3c(NC(=O)c4ccn(-c5ccnnc5)n4)ccc(Oc4ccccc4F)c3C(F)(F)F)C[C@@H]12 [Example 77]
31 | N[C@@H]1CCN2CCN(c3c(NC(=O)c4ccn(-c5ccnnc5)n4)ccc(OC4CC4)c3C(F)(F)F)C[C@@H]12 [Example 82]
3.5 | CN[C@@H]1CCN2CCN(c3c(NC(=O)c4coc(-c5ccnnc5)n4)ccc(Oc4ccccc4F)c3C(F)(F)F)C[C@@H]12 [Example 83]
5.2 | CN[C@H]1CCN2CCN(c3c(NC(=O)c4ccn(-c5ccnnc5)n4)ccc(Oc4ccccc4F)c3C(F)(F)F)C[C@H]12 [Example 85]
4.1 | CNC[C@H]1CN(c2c(NC(=O)c3ccn(-c4ccnnc4)n3)ccc(Oc3ccccc3Cl)c2C(F)(F)F)CCN1C [Example 87]
110 | CNC[C@H]1CN(c2c(NC(=O)c3ccn(-c4ccnnc4)n3)ccc(OC3CC3)c2C(F)(F)F)CCN1C [Example 88]
27 | CN1CCN(c2c(NC(=O)c3ccn(-c4ccnnc4)n3)ccc(Oc3ccccc3F)c2C(F)(F)F)C[C@@H]1CNC1CC1 [Example 89]
92 | CNC[C@H]1CN(c2c(NC(=O)c3cc(C)n(-c4ccnnc4)n3)ccc(Oc3ccccc3F)c2C(F)(F)F)CCN1C [Example 92]
2.8 | CNC[C@H]1CN(c2c(NC(=O)c3coc(-c4ccnnc4)n3)ccc(Oc3ccccc3Cl)c2Cl)CCN1C [Example 93]
1.4 | CNC[C@H]1CN(c2c(NC(=O)c3ccn(-c4ccnnc4)n3)ccc(Oc3ccccc3Cl)c2Cl)CCN1C [Example 94]
12 | CNC[C@H]1CN(c2c(NC(=O)c3cnn(-c4ccnnc4)n3)ccc(Oc3ccccc3Cl)c2C(F)(F)F)CCN1C [Example 97]
7.5 | CNC[C@H]1CN(c2c(NC(=O)c3coc(-c4ccnnc4)n3)ccc(Oc3ccccc3F)c2Cl)CCN1C [Example 98]
33 | CNC[C@H]1CN(c2c(NC(=O)c3ccn(-c4ccnnc4)n3)ccc(OC3CCC3)c2C(F)(F)F)CCN1C [Example 99]
69 | CNC[C@H]1CN(c2c(NC(=O)c3ccn(-c4ccnnc4)n3)ccc(Oc3ccc(F)cc3)c2C(F)(F)F)CCN1C [Example 101]
37 | CNC[C@H]1CN(c2c(NC(=O)c3ccn(-c4ccnnc4)n3)ccc(Oc3ccccc3F)c2C2CC2)CCN1C [Example 104]
46 | CNC[C@H]1CN(c2c(NC(=O)c3coc(-c4ccnnc4)n3)ccc(Oc3ccccc3)c2C(F)(F)F)CCN1C [Example 105]
8.9 | CNC[C@H]1CN(c2c(NC(=O)c3ccn(-c4ccnnc4)n3)cc(F)c(Oc3ccccc3)c2F)CCN1C [Example 108]
110 | NC[C@@H]1CCCN(c2c(NC(=O)c3ccn(CC(F)(F)F)n3)ccc(Oc3ccccc3)c2C(F)(F)F)C1 [Example 109, N-{2-[(3S)-3-(aminomethyl)piperidin-1-yl]-4-phenoxy-3-(trifluoromethyl)phenyl}-1-(2,2,2-trifluoroethyl)-1H-pyrazole-3-carboxamide]
52 | CN1CCN(c2c(NC(=O)c3ccn(CC(F)F)n3)ccc(Oc3ccccc3F)c2Cl)C[C@@H]1CN [Example 112, N-{2-[(3S)-3-(aminomethyl)-4-methylpiperazin-1-yl]-3-chloro-4-(2-fluorophenoxy)phenyl}-1-(2,2-difluoroethyl)-1H-pyrazole-3-carboxamide]
37 | CN(C)CCOc1cccc(-c2c(NC(=O)c3coc(-c4ccnnc4)n3)ccc(OC3CC3)c2C(F)(F)F)c1 [Example 114]
7.9 | CN(C)[C@@H]1CCN2CCN(c3c(NC(=O)c4coc(-c5ccnnc5)n4)ccc(Oc4ccccc4)c3C(F)(F)F)C[C@@H]12 [Example 115]
44 | CN(C)C[C@H]1CN(c2c(NC(=O)c3coc(-c4ccnnc4)n3)ccc(Oc3ccccc3)c2C(F)(F)F)CCN1C [Example 116]
1.4 | CN(C)[C@@H]1CCN2CCN(c3c(NC(=O)c4ccn(-c5ccnnc5)n4)ccc(Oc4ccccc4F)c3C(F)(F)F)C[C@@H]12 [Example 118]
14 | CN(C)[C@@H]1CCN2CCN(c3c(NC(=O)c4ccn(-c5ccnnc5)n4)ccc(OC4CC4)c3C(F)(F)F)C[C@@H]12 [Example 121]
4 | CNC[C@@H]1CN(c2c(NC(=O)c3ccn(-c4ccnnc4)n3)ccc(Oc3ccccc3F)c2C(F)(F)F)CCN1C [Example 123, N-[4-(2-fluorophenoxy)-2-{(3R)-4-methyl-3-[(methylamino)methyl]piperazin1-yl}-3-(trifluoromethyl)phenyl]-1-(pyridazin-4-yl)-1H-pyrazole-3-carboxamide monobutanedioate]
3.8 | CNC[C@H]1CN(c2c(NC(=O)c3ccn(-c4ccnnc4)n3)ccc(C3CCCC3)c2C(F)(F)F)CCN1C [Example 124]
